{"source": "patent US20190374509A1", "about": "“Methods of Using Metamizole for Treatment of Pyrexia in Equines” (Kindred Biosciences, Inc., priority 2018, published 2019)", "key": {"[1]": {"test_system": "horses", "experiment": "Coagulation effects study, IV BID or TID for 9 days: clinical signs", "format": "in vivo", "method": "The purpose of this study was to evaluate the effects of metamizole on coagulation parameters and pharmacokinetic parameters when administered intravenously to horses for 9 days at doses of 0 mg/kg (0×), 30 mg/kg (1×), 60 mg/kg (2×), and 90 mg/kg (3×) of body weight. Doses of 0×, 1×, 2×, and 3× were administered twice daily (BID), every 12 hours±120 min. Doses of 1× and 2× were administered three times daily (TID), every 8 hours±120 min. Metamizole plasma concentrations were assessed in the 1×BID, 3×BID, 1×TID, and 2×TID treatments groups to evaluate for evidence of accumulation.\nThe investigational drug was a sterile injectable formulation of dipyrone (Zimeta®, Corden Pharma, Caponago, Italy) (500 mg/mL) in 100 mL glass bottles. The placebo was sterile injectable saline (0.9% Saline, Nova-Tech Inc, Grand Island, NE) (0.9% sodium chloride) in 500 mL plastic bottles labeled for veterinary use. Dipyrone treatment groups were 30 mg/kg/dose (1×) administered twice daily (BID), 1× administered three times daily (TID), 60 mg/kg/dose (2×) BID, 2×TID, and 90 mg/kg/dose (3×) BID. Placebo treatment group, (0×) BID, were saline administered at a volume to match the 1× dipyrone group. The dose was calculated based on body weight and administered for nine consecutive days (Days 1-9). Due to the large volume of the injection at the higher test intervals, treatment was administered via indwelling intravenous catheters. Intravenous catheters were placed using standard techniques. Horses were sedated with xylazine (XylaMed™, VetOne, MWI, Boise, Id.) (0.6 mg/kg, IV) and the skin was desensitized with subcutaneous injection of lidocaine (Lidocaine 2%, VetOne, MWI, Boise, Id.). Intravenous catheters were replaced at the discretion of the study director and were maintained with heparinized saline flush prior to, and following, dose administration.\nHorses were acclimated to the facility for 14 days prior to start of the treatment phase. […] On Day −1, thirty-two horses were randomized by the study statistician and moved to their assigned pens. On Day −1 (baseline), Day 4, and Day 10 horses had blood collected for a coagulation panel. A physical exam was performed prior to study start and on Day 10."}, "[2]": {"test_system": "horses", "format": "in vivo", "conditions": "8 horses per group", "method": "A study was conducted to evaluate the margin of safety of metamizole when administered intravenously to horses for 9 days at doses of 0 mg/kg (0×), 30 mg/kg (1×), 60 mg/kg (2×), and 90 mg/kg (3×) of body weight three times daily (TID), every 8 hours±30 min.\nTreatment phase involved administration of the investigational drug or placebo. The investigational drug was a sterile injectable formulation of dipyrone (Zimeta™, Corden Pharma, Caponago, Italy) (500 mg/mL) in 100 mL glass bottles. The placebo was sterile injectable saline (Nova-Tech Inc, Grand Island, NE) (0.9% sodium chloride) in 500 mL plastic bottles labeled for veterinary use. Dipyrone treatment groups were 30 mg/kg (1×), 60 mg/kg (2×), and 90 mg/kg (3×). Placebo treatment group was saline administered at a volume to match the 3× dipyrone group (0×). The dose was calculated based on body weight and administered three times daily for nine consecutive days. Due to the large volume of injection at the higher dose groups, treatment was administered via indwelling intravenous (IV) catheters. Intravenous catheters were placed using standard techniques. Horses were sedated with xylazine (AnaSed® LA, VetOne, MWI, Boise, Id.) and the skin was desensitized with subcutaneous injection of lidocaine (VetOne, MWI, Boise, Id.). Intravenous catheters were replaced at the discretion of the study director and were maintained with heparinized saline flush prior to and following dose administration.\nRandomization occurred on Study Day −1. […] .\nAll 32 horses were acclimated prior to study initiation and started the treatment phase healthy. During the study, numerous horses in all groups including placebo developed clinical signs of pneumonia likely due to exposure and incubation of respiratory pathogens prior to the start of the treatment phase. The mean time to development of pneumonia was 6.9 days with a range of 4.3 to 8.3 days. […] The other 31 horses completed the study. At the second gastroscopy examination, completed just prior to the treatment phase, one horse was noted to have purulent material draining from the guttural pouch. […]"}, "[3]": {"conditions": "1X BID, 30 mg/kg IV twice daily, n = 6"}, "[4]": {"conditions": "1X TID, 30 mg/kg IV three times daily, n = 4"}, "[5]": {"conditions": "2X BID, 60 mg/kg IV twice daily, n = 6"}, "[6]": {"conditions": "2X TID, 60 mg/kg IV three times daily, n = 6"}, "[7]": {"conditions": "3X BID, 90 mg/kg IV twice daily, n = 6"}}, "note": "Like-named read-outs stand apart in the source and are kept apart here.", "data": [{"smiles": "Cc1c(N(C)CS(=O)(=O)O)c(=O)n(-c2ccccc2)n1C", "note": "[dipyrone, [(2,3-dihydro-1,5-dimethyl-3-oxo-2-phenyl-1H-pyrazol-4-yl)methylamino] methanesulfonic acid]", "values": [{"measurement": "Depression, number of horses", "setting": "[1]; [3]", "result": 0}, {"measurement": "Dermatitis, number of horses", "setting": "[1]; [3]", "result": 0}, {"measurement": "Minor gastrointestinal signs or inappetence, number of horses", "setting": "[1]; [3]", "result": 2}, {"measurement": "Minor respiratory signs (nasal discharge and or cough), number of horses", "setting": "[1]; [3]", "result": 1}, {"measurement": "Ocular discharge, number of horses", "setting": "[1]; [3]", "result": 0}, {"measurement": "Phlebitis and other catheter-related changes to jugular vein, number of horses", "setting": "[1]; [3]", "result": 2}, {"measurement": "Suture site abscesses, number of horses", "setting": "[1]; [3]", "result": 1}, {"measurement": "Depression, number of horses", "setting": "[1]; [4]", "result": 0}, {"measurement": "Dermatitis, number of horses", "setting": "[1]; [4]", "result": 0}, {"measurement": "Minor gastrointestinal signs or inappetence, number of horses", "setting": "[1]; [4]", "result": 1}, {"measurement": "Minor respiratory signs (nasal discharge and or cough), number of horses", "setting": "[1]; [4]", "result": 0}, {"measurement": "Ocular discharge, number of horses", "setting": "[1]; [4]", "result": 0}, {"measurement": "Phlebitis and other catheter-related changes to jugular vein, number of horses", "setting": "[1]; [4]", "result": 1}, {"measurement": "Suture site abscesses, number of horses", "setting": "[1]; [4]", "result": 0}, {"measurement": "Depression, number of horses", "setting": "[1]; [5]", "result": 0}, {"measurement": "Dermatitis, number of horses", "setting": "[1]; [5]", "result": 0}, {"measurement": "Minor gastrointestinal signs or inappetence, number of horses", "setting": "[1]; [5]", "result": 2}, {"measurement": "Minor respiratory signs (nasal discharge and or cough), number of horses", "setting": "[1]; [5]", "result": 0}, {"measurement": "Ocular discharge, number of horses", "setting": "[1]; [5]", "result": 1}, {"measurement": "Phlebitis and other catheter-related changes to jugular vein, number of horses", "setting": "[1]; [5]", "result": 3}, {"measurement": "Suture site abscesses, number of horses", "setting": "[1]; [5]", "result": 0}, {"measurement": "Depression, number of horses", "setting": "[1]; [6]", "result": 1}, {"measurement": "Dermatitis, number of horses", "setting": "[1]; [6]", "result": 0}, {"measurement": "Minor gastrointestinal signs or inappetence, number of horses", "setting": "[1]; [6]", "result": 2}, {"measurement": "Minor respiratory signs (nasal discharge and or cough), number of horses", "setting": "[1]; [6]", "result": 0}, {"measurement": "Ocular discharge, number of horses", "setting": "[1]; [6]", "result": 0}, {"measurement": "Phlebitis and other catheter-related changes to jugular vein, number of horses", "setting": "[1]; [6]", "result": 2}, {"measurement": "Suture site abscesses, number of horses", "setting": "[1]; [6]", "result": 1}, {"measurement": "Depression, number of horses", "setting": "[1]; [7]", "result": 0}, {"measurement": "Dermatitis, number of horses", "setting": "[1]; [7]", "result": 1}, {"measurement": "Minor gastrointestinal signs or inappetence, number of horses", "setting": "[1]; [7]", "result": 1}, {"measurement": "Minor respiratory signs (nasal discharge and or cough), number of horses", "setting": "[1]; [7]", "result": 1}, {"measurement": "Ocular discharge, number of horses", "setting": "[1]; [7]", "result": 0}, {"measurement": "Phlebitis and other catheter-related changes to jugular vein, number of horses", "setting": "[1]; [7]", "result": 3}, {"measurement": "Suture site abscesses, number of horses", "setting": "[1]; [7]", "result": 0}, {"measurement": "Abnormal clinical signs in the treatment period", "setting": "[1]; all treatment groups (30-90 mg/kg IV BID or TID, 9 days)", "result": "none were considered treatment related"}, {"measurement": "Nasal Discharge, number of horses", "setting": "[2]; 1X, 30 mg/kg IV every 8 hours", "result": 1}, {"measurement": "Nasal Discharge, number of horses", "setting": "[2]; 2X, 60 mg/kg IV every 8 hours", "result": 2}, {"measurement": "Nasal Discharge, number of horses", "setting": "[2]; 3X, 90 mg/kg IV every 8 hours", "result": 1}]}]}
